Measurements as given in the NIST ThermoML archive (doi:10.1021/je200121f).
± gives the expanded uncertainty stated by the source.

Assay: xn = mol fraction of the nth substance listed
Conditions: for speed of sound / mass density / viscosity: 101 kPa, Liquid; for speed of sound: Sing-around technique in a fixed-path interferometer; for mass density: Vibrating tube method; for surface tension liquid-gas: Ring tensiometer; for viscosity: Capillary tube (Ostwald / Ubbelohde) method

With `C[C@H](O)CN` [(2S)-1-amino-2-propanol] + CN1CCCC1=O the speed of sound (303.15 K, x2 = 0) was 1528.3 ± 3.4 m/s, the speed of sound (303.15 K, x2 = 0.1034) was 1519.6 ± 3.3 m/s and the speed of sound (303.15 K, x2 = 0.2008) was 1514.7 ± 3.3 m/s. For the same compound, the speed of sound (303.15 K, x2 = 0.3001) was 1511.8 ± 3.2 m/s, the speed of sound (303.15 K, x2 = 0.4002) was 1510 ± 3.1 m/s and the speed of sound (303.15 K, x2 = 0.4978) was 1509.4 ± 3.1 m/s. It also gave a speed of sound (303.15 K, x2 = 0.5943) of 1510.3 ± 3.1 m/s, a speed of sound (303.15 K, x2 = 0.7) of 1512.8 ± 3 m/s and a speed of sound (303.15 K, x2 = 0.7993) of 1516.8 ± 3 m/s. The speed of sound (303.15 K, x2 = 0.8913) was 1520.6 ± 2.9 m/s, the mass density (303.15 K, x2 = 0) was 952.8 ± 0.8 kg/m3 and the mass density (303.15 K, x2 = 0.1034) was 960 ± 0.8 kg/m3. The mass density (303.15 K, x2 = 0.2008) was 966.9 ± 0.7 kg/m3, the mass density (303.15 K, x2 = 0.3001) was 974.2 ± 0.7 kg/m3 and the mass density (303.15 K, x2 = 0.4002) was 980.8 ± 0.6 kg/m3. It also gave a mass density (303.15 K, x2 = 0.4978) of 987.7 ± 0.6 kg/m3, a mass density (303.15 K, x2 = 0.5943) of 994.5 ± 0.6 kg/m3 and a mass density (303.15 K, x2 = 0.7) of 1002 ± 0.5 kg/m3. It also gave a mass density (303.15 K, x2 = 0.7993) of 1009.2 ± 0.5 kg/m3, a mass density (303.15 K, x2 = 0.8913) of 1016.1 ± 0.5 kg/m3 and a surface tension liquid-gas (313.15 K, x2 = 0) of 36.3 ± 0.6 mN/m. The surface tension liquid-gas (313.15 K, x2 = 0.1034) was 36.8 ± 0.6 mN/m, the surface tension liquid-gas (313.15 K, x2 = 0.2008) was 37.3 ± 0.6 mN/m and the surface tension liquid-gas (313.15 K, x2 = 0.3001) was 37.7 ± 0.6 mN/m. The surface tension liquid-gas (313.15 K, x2 = 0.4002) was 38.1 ± 0.6 mN/m, the surface tension liquid-gas (313.15 K, x2 = 0.4978) was 38.7 ± 0.6 mN/m and the surface tension liquid-gas (313.15 K, x2 = 0.5943) was 39 ± 0.6 mN/m. It also gave a surface tension liquid-gas (313.15 K, x2 = 0.7) of 39.5 ± 0.6 mN/m, a surface tension liquid-gas (313.15 K, x2 = 0.7993) of 40.2 ± 0.6 mN/m and a surface tension liquid-gas (313.15 K, x2 = 0.8913) of 40.4 ± 0.6 mN/m. It also gave a viscosity (313.15 K, x2 = 0) of 10.65 ± 0.16 mPa·s, a viscosity (313.15 K, x2 = 0.1034) of 7.301 ± 0.12 mPa·s and a viscosity (313.15 K, x2 = 0.2008) of 5.308 ± 0.08 mPa·s. It also gave a viscosity (313.15 K, x2 = 0.3001) of 4.045 ± 0.055 mPa·s, a viscosity (313.15 K, x2 = 0.4002) of 3.725 ± 0.048 mPa·s and a viscosity (313.15 K, x2 = 0.4978) of 3.448 ± 0.043 mPa·s. It also gave a viscosity (313.15 K, x2 = 0.5943) of 3.375 ± 0.038 mPa·s, a viscosity (313.15 K, x2 = 0.7) of 2.775 ± 0.03 mPa·s and a viscosity (313.15 K, x2 = 0.7993) of 2.458 ± 0.025 mPa·s. It also gave a viscosity (313.15 K, x2 = 0.8913) of 2.168 ± 0.023 mPa·s, a speed of sound (313.15 K, x2 = 0) of 1495.7 ± 3.4 m/s and a speed of sound (313.15 K, x2 = 0.1034) of 1486 ± 3.3 m/s. It also gave a speed of sound (313.15 K, x2 = 0.2008) of 1480.5 ± 3.3 m/s, a speed of sound (313.15 K, x2 = 0.3001) of 1476.6 ± 3.2 m/s and a speed of sound (313.15 K, x2 = 0.4002) of 1474.8 ± 3.1 m/s. For the same compound, the speed of sound (313.15 K, x2 = 0.4978) was 1472.8 ± 3.1 m/s, the speed of sound (313.15 K, x2 = 0.5943) was 1473.5 ± 3.1 m/s and the speed of sound (313.15 K, x2 = 0.7) was 1475.4 ± 3 m/s. The speed of sound (313.15 K, x2 = 0.7993) was 1479.1 ± 3 m/s, the speed of sound (313.15 K, x2 = 0.8913) was 1482.6 ± 2.9 m/s and the mass density (313.15 K, x2 = 0) was 944.7 ± 0.8 kg/m3. For the same compound, the mass density (313.15 K, x2 = 0.1034) was 951.7 ± 0.8 kg/m3, the mass density (313.15 K, x2 = 0.2008) was 958.4 ± 0.7 kg/m3 and the mass density (313.15 K, x2 = 0.3001) was 965.6 ± 0.7 kg/m3. The mass density (313.15 K, x2 = 0.4002) was 972.1 ± 0.6 kg/m3, the mass density (313.15 K, x2 = 0.4978) was 978.8 ± 0.6 kg/m3 and the mass density (313.15 K, x2 = 0.5943) was 985.6 ± 0.6 kg/m3. It also gave a mass density (313.15 K, x2 = 0.7) of 993.1 ± 0.5 kg/m3, a mass density (313.15 K, x2 = 0.7993) of 1000.3 ± 0.5 kg/m3 and a mass density (313.15 K, x2 = 0.8913) of 1007.2 ± 0.5 kg/m3. For the same compound, the surface tension liquid-gas (323.15 K, x2 = 0) was 35.9 ± 0.6 mN/m, the surface tension liquid-gas (323.15 K, x2 = 0.1034) was 36.2 ± 0.6 mN/m and the surface tension liquid-gas (323.15 K, x2 = 0.2008) was 36.6 ± 0.6 mN/m. It also gave a surface tension liquid-gas (323.15 K, x2 = 0.3001) of 37.1 ± 0.6 mN/m, a surface tension liquid-gas (323.15 K, x2 = 0.4002) of 37.6 ± 0.6 mN/m and a surface tension liquid-gas (323.15 K, x2 = 0.4978) of 38 ± 0.6 mN/m. For the same compound, the surface tension liquid-gas (323.15 K, x2 = 0.5943) was 38.4 ± 0.6 mN/m, the surface tension liquid-gas (323.15 K, x2 = 0.7) was 38.8 ± 0.6 mN/m and the surface tension liquid-gas (323.15 K, x2 = 0.7993) was 39.2 ± 0.6 mN/m. It also gave a surface tension liquid-gas (323.15 K, x2 = 0.8913) of 39.5 ± 0.6 mN/m, a viscosity (323.15 K, x2 = 0) of 6.961 ± 0.11 mPa·s and a viscosity (323.15 K, x2 = 0.1034) of 4.793 ± 0.077 mPa·s. It also gave a viscosity (323.15 K, x2 = 0.2008) of 3.499 ± 0.053 mPa·s, a viscosity (323.15 K, x2 = 0.3001) of 2.939 ± 0.039 mPa·s and a viscosity (323.15 K, x2 = 0.4002) of 2.649 ± 0.036 mPa·s. For the same compound, the viscosity (323.15 K, x2 = 0.4978) was 2.438 ± 0.031 mPa·s, the viscosity (323.15 K, x2 = 0.5943) was 2.731 ± 0.033 mPa·s and the viscosity (323.15 K, x2 = 0.7) was 2.317 ± 0.025 mPa·s. The viscosity (323.15 K, x2 = 0.7993) was 2.073 ± 0.022 mPa·s, the viscosity (323.15 K, x2 = 0.8913) was 1.861 ± 0.021 mPa·s and the speed of sound (323.15 K, x2 = 0) was 1462.9 ± 3.4 m/s. For the same compound, the speed of sound (323.15 K, x2 = 0.1034) was 1452.1 ± 3.3 m/s, the speed of sound (323.15 K, x2 = 0.2008) was 1446 ± 3.2 m/s and the speed of sound (323.15 K, x2 = 0.3001) was 1441.6 ± 3.2 m/s. It also gave a speed of sound (323.15 K, x2 = 0.4002) of 1440.5 ± 3.1 m/s, a speed of sound (323.15 K, x2 = 0.4978) of 1436.8 ± 3.1 m/s and a speed of sound (323.15 K, x2 = 0.5943) of 1436.8 ± 3 m/s. It also gave a speed of sound (323.15 K, x2 = 0.7) of 1438.4 ± 3 m/s, a speed of sound (323.15 K, x2 = 0.7993) of 1441.7 ± 3 m/s and a speed of sound (323.15 K, x2 = 0.8913) of 1445.1 ± 2.9 m/s. It also gave a mass density (323.15 K, x2 = 0) of 936.5 ± 0.8 kg/m3, a mass density (323.15 K, x2 = 0.1034) of 943.2 ± 0.8 kg/m3 and a mass density (323.15 K, x2 = 0.2008) of 949.8 ± 0.7 kg/m3. It also gave a mass density (323.15 K, x2 = 0.3001) of 956.9 ± 0.7 kg/m3, a mass density (323.15 K, x2 = 0.4002) of 963.3 ± 0.6 kg/m3 and a mass density (323.15 K, x2 = 0.4978) of 969.9 ± 0.6 kg/m3. It also gave a mass density (323.15 K, x2 = 0.5943) of 976.7 ± 0.6 kg/m3, a mass density (323.15 K, x2 = 0.7) of 984.2 ± 0.5 kg/m3 and a mass density (323.15 K, x2 = 0.7993) of 991.4 ± 0.5 kg/m3. For the same compound, the mass density (323.15 K, x2 = 0.8913) was 998.2 ± 0.5 kg/m3.
